Measured values taken from patent US8088890B2, “Peptides and peptidomimetic compounds, the manufacturing thereof as well as their use for preparing a therapeutically and/or preventively active pharmaceutical composition” (Fibrex Medical Research & Development GmbH, priority 2008, dated 2012).

Tested on: RhoA
Assay: thrombin induced RhoA activation in human umbilical vein endothelial cell (HUVEC) culture (Rho pull-down, Western blot)
Format: cell-based
Conditions: 5 U/ml thrombin alone, 5 min
Protocol: The biological effect of the compounds was established in a model thrombin induced RhoA activation in human umbilical vein endothelial cell (HUVEC) culture.
HUVEC are grown to confluence under standard conditions. Before induction of Rho activity HUVEC were starved for 4 h by using IMDM (Gibco) without growth factor and serum supplements. After the starvation period 5 U/ml Thrombin (Calbiochem) or 5 U thrombin plus 50 μg/ml of test compound are added to the starvation medium for 1, 5 and 10 min. Active RhoA was isolated using Rho Assay Reagent from Upstate according to manufactures instructions. Isolates were separated on a 15% polyacrylamide gel and blotted on Nitrocellulose-Membrane (Bio-Rad). RhoA was detected by using Anti-Rho (-A, -B, -C), clone55 from Upstate (1:500).

Substance: thrombin
- Relative RhoA stimulation compared to unstimulated control: 6.2
